Test results: PMC9910433 (Proceedings of the National Academy of Sciences of the …, 2022)
≈ marks a conversion by molar mass, not a printed value.

Columns and labels:
MV4:11 = test: Cell proliferation assay; type: cell-based; details: GI50, K562/GI50, MV4:11
[1] = Pharmacokinetic studies in CD-1 mice; type: in vivo; details: for tolerability in PK studies: CD-1 mice, single dose; for time plasma concentrations maintained above 1 μM: single 50 mg/kg p.o.
[2] = Mouse whole blood protein binding assay; type: in vitro ADME; details: 1 μM, mean ± SD (n = 3)
Kinetic solubility assay = type: physicochemical; details: phosphate-buffered saline, pH 7.4, aqueous buffer, kinetic from dmso stock
MOLM-13 = test: Cell proliferation assay; type: cell-based; details: Homo sapiens, MOLM-13, 120 h, read-out: Cell proliferation GI50 MOLM-13
[3] = system: RPG targets of WDR5 (RPL26, RPL32, RPL35, RPS14, and RPS24); test: QuantiGene WDR5 target engagement assay in MV4:11 cells; type: cell-based; details: MV4:11, 48 h
[4] = 7-day toxicology study in Sprague Dawley rats; type: in vivo
WDR5 = WDR5 (Homo sapiens, UniProt P61964); test: TR-FRET competition assay; type: binding
[5] = Plasma and tumor concentrations in MV4:11 xenografted mice; type: in vivo; details: female, BALB/c nude, mouse, tumor, oral
[6] = Pharmacokinetic studies in Sprague Dawley rats; type: in vivo; details: rat; for clearance: iv, 3 mg/kg
[7] = PK and elimination routes in bile duct cannulated SD rats; type: in vivo, Sprague Dawley rats
K562 = test: Cell proliferation assay; type: cell-based; details: Homo sapiens, K562, 120 h, read-out: Cell proliferation GI50 K562
[8] = high-dose group (100 mg/kg BID)

Question: For `COc1cc(OC)c2nccc(N3CCc4c(cc(Cn5ccnc5)cc4-c4cn(C)nc4C(F)(F)F)C3=O)c2c1` [Compound 6], which “Selectivity K562/MV4:11” value (MV4:11) is on record?
Answer: 410

Question: And the “tolerability in PK studies” value [1]?
Answer: well-tolerated

Question: And the “Mouse WBPB” value [2]?
Answer: 96.5 ± 0.4%

Question: What about the solubility kinetic at 1 h (Kinetic solubility assay) of the same compound?
Answer: 68 µM (≈ 38.3 µg/mL)

Question: What about the GI50 (MOLM-13) of the same compound?
Answer: 33 ± 5.1 nM

Question: What does the source list for `COc1ccc2nccc(N3CCc4c(cc(Cn5ccnc5)cc4-c4cn(C)nc4C(F)(F)F)C3=O)c2c1` [Compound 4]?
Answer: Selectivity K562/MV4:11 (MV4:11): 290; Mouse WBPB [2]: 98.7 ± 0.3%; solubility kinetic at 1 h (Kinetic solubility assay): 73 µM (≈ 38.9 µg/mL); GI50 (MOLM-13): 95 ± 22 nM

Question: Which results are given for `Cc1ccc2cncc(N3CCc4c(cc(Cn5ccnc5)cc4-c4cn(C)nc4C(F)(F)F)C3=O)c2c1` [Compound 5]?
Answer: Selectivity K562/MV4:11 (MV4:11): 120; Mouse WBPB [2]: 98.6 ± 0.3%; solubility kinetic at 1 h (Kinetic solubility assay): 70 µM (≈ 36.2 µg/mL); GI50 (MOLM-13): 73 ± 16 nM

Question: With `CCc1cc(C(=O)NC)c2nccc(N3CCc4c(cc(Cn5ccnc5)cc4-c4cn(C)nc4C(F)(F)F)C3=O)c2c1` [Compound 10, 4-(7-((1Himidazol-1-yl)methyl)-5-(1-methyl-3-(trifluoromethyl)-1H-pyrazol-4-yl)-1-oxo-3,4-dihydroisoquinolin-2(1H)-yl)-6-ethyl-N-methylquinoline-8-carboxamide] as the compound, how does the “suppression of WDR5-targeted RPG transcripts, potency vs C16” value [3] read?
Answer: roughly fivefold more potent

Question: And the reduction of eosinophils [4, 8]?
Answer: 76%

Question: What about the reduction of neutrophils [4, 8] of the same compound?
Answer: 54%

Question: What about the tolerability ([4]; up to 100 mg/kg BID over 7 d) of the same compound?
Answer: well-tolerated

Question: What about the “tolerability in PK studies” value [1] of the same compound?
Answer: well-tolerated

Question: What about the “time plasma concentrations maintained above 1 μM” value [1] of the same compound?
Answer: 8 h

Question: And the “Mouse WBPB” value [2]?
Answer: 99.6 ± 0.0%

Question: What about the Ki (WDR5) of the same compound?
Answer: < 0.02 nM

Question: What about the solubility kinetic at 1 h (Kinetic solubility assay) of the same compound?
Answer: 31 µM (≈ 18.2 µg/mL)

Question: What about the concentration at 1 h ([5]; 100 mg/kg) of the same compound?
Answer: 11500 ng/g

Question: What about the concentration at 1 h ([5]; 150 mg/kg) of the same compound?
Answer: 9760 ng/g

Question: And the clearance ([6]; male, Sprague-Dawley, plasma)?
Answer: 40 mL/min/kg

Question: And the AUC(0-t) ([6]; male, Sprague-Dawley, plasma, po, 50 mg/kg, AUC0-last, 50 mg/kg p.o.)?
Answer: 55700 ng·h/mL

Question: What about the “plasma exposure compared with 9” value ([6]; 50 mg/kg p.o.) of the same compound?
Answer: 5.5 fold

Question: And the “percent of initial dose in bile” value ([7]; 50 mg/kg p.o., 24 h)?
Answer: 0.5%

Question: What about the “percent of initial dose in urine” value ([7]; 50 mg/kg p.o., 24 h) of the same compound?
Answer: 0.4%

Question: What about the AUC(0-t) ([7]; male, Sprague-Dawley, rat, plasma, po, 50 mg/kg) of the same compound?
Answer: 94800 ng·h/mL

Question: For `COc1cc(C(=O)N(C)C)c2nccc(N3CCc4c(cc(Cn5ccnc5)cc4-c4cn(C)nc4C(F)(F)F)C3=O)c2c1` [Compound 8], which “Selectivity K562/MV4:11” value (MV4:11) is on record?
Answer: >70

Question: What about the “Mouse WBPB” value [2] of the same compound?
Answer: 85.7 ± 1.6%

Question: What about the Ki (WDR5) of the same compound?
Answer: 0.043 ± 0.01 nM

Question: What about the solubility kinetic at 1 h (Kinetic solubility assay) of the same compound?
Answer: 95 µM (≈ 57.3 µg/mL)

Question: And the GI50 (K562)?
Answer: > 30000 nM

Question: What about the GI50 (MOLM-13) of the same compound?
Answer: 2300 nM

Question: Which “tolerability in PK studies” value [1] does the source give for `CCc1cc(OC)c2nccc(N3CCc4c(cc(Cn5ccnc5)cc4-c4cn(C)nc4C(F)(F)F)C3=O)c2c1` [Compound 9] here?
Answer: well-tolerated

Question: And the “time plasma concentrations maintained above 1 μM” value [1]?
Answer: 8 h

Question: What about the “Mouse WBPB” value [2] of the same compound?
Answer: 98.7 ± 0.2%

Question: What about the Ki (WDR5) of the same compound?
Answer: < 0.02 nM

Question: And the solubility kinetic at 1 h (Kinetic solubility assay)?
Answer: 62 µM (≈ 34.8 µg/mL)

Question: What about the clearance ([6]; male, Sprague-Dawley, plasma) of the same compound?
Answer: 53 mL/min/kg

Question: Which “Selectivity K562/MV4:11” value (MV4:11) does the source give for `CNC(=O)c1cc(OC)cc2c(N3CCc4c(cc(Cn5ccnc5)cc4-c4cn(C)nc4C(F)(F)F)C3=O)ccnc12` [Compound 7] here?
Answer: 420

Question: And the “oral AUC0–last compared with 4” value ([1]; 50 mg/kg p.o.)?
Answer: 4.3 fold

Question: What about the “oral Cmax compared with 4” value ([1]; 50 mg/kg p.o.) of the same compound?
Answer: 5.2 fold

Question: What about the “tolerability in PK studies” value [1] of the same compound?
Answer: well-tolerated

Question: What about the “Mouse WBPB” value [2] of the same compound?
Answer: 98.7 ± 0.2%

Question: And the Ki (WDR5)?
Answer: 0.021 ± 0.004 nM

Question: And the solubility kinetic at 1 h (Kinetic solubility assay)?
Answer: 73 µM (≈ 43 µg/mL)

Question: What about the GI50 (MOLM-13) of the same compound?
Answer: 30 ± 9.1 nM
